According to US6455540B1, “Methods of use of quinolone compounds against anaerobic pathogenic bacteria” (priority 1999, dated 2002):
Converted amounts (≈) assume the structure as drawn.

Columns and labels:
Test in all cases: Agar dilution MIC
Clostridium ramosum = type: cell-based; conditions: 10 isolates
[1] = test system: Prevotella buccae-oris group; type: cell-based; conditions: 22 isolates
[2] = test system: Prevotella melaninogenica; type: cell-based; conditions: 12 isolates
[3] = test system: Actinomyces odontolyticus; type: cell-based; conditions: 10 isolates
Prevotella intermedia = type: cell-based; conditions: 11 isolates
Bilophila wadsworthia = type: cell-based; conditions: Bilophila wadsworthia, 16 isolates, agar supplemented with pyruvate
[4] = test system: Peptostreptococcus magnus; type: cell-based; conditions: 13 isolates
Clostridium inocuum = type: cell-based, Clostridium innocuum; conditions: Clostridium, 11 isolates
[5] = test system: Peptostreptococcus asaccharolyticus; type: cell-based; conditions: 11 isolates
[6] = test system: Prevotella heparinolytica; type: cell-based; conditions: 16 isolates
[7] = test system: Porphyromonas asaccharolyticus; type: cell-based, Porphyromonas asaccharolytica; conditions: 11 isolates
Fusobacterium russii = type: cell-based
[8] = test system: Anaerobiospirillum thomasii; type: cell-based; conditions: 13 isolates
Bacteroides ureolyticus = type: cell-based; conditions: Campylobacter ureolyticus, 17 isolates
Actinomyces israelii = type: cell-based; conditions: 6 isolates
Porphyromonas macaccae = type: cell-based; conditions: 13 isolates
Prevotella bivia = type: cell-based; conditions: 21 isolates
Veillonella spp. = type: cell-based; conditions: Veillonella, 24 isolates
Porphyromonas canoris = type: cell-based; conditions: 10 isolates
Bacteroides gracilis = type: cell-based, Bacteroides gracilis (Campylobacter gracilis); conditions: Campylobacter gracilis, 11 isolates
[9] = test system: Anaerobiospirillum succiniciproducens; type: cell-based; conditions: 3 isolates
Fusobacterium varium = type: cell-based; conditions: Fusobacterium varium, 17 isolates
[10] = test system: Prevotella denticola/loeschii group; type: cell-based; conditions: 6 isolates
[11] = test system: Fusobacterium spp group 1; type: cell-based; conditions: 19 isolates
[12] = test system: Fusobacterium spp. group 2; type: cell-based, Fusobacterium mortiferum, necrogenes, ulcerans; conditions: Fusobacterium, 12 isolates
Porphyromonas gingivalis = type: cell-based; conditions: 13 isolates
Bacteroides tectum = type: cell-based; conditions: 22 isolates
[13] = test system: Clostridium clostridioforme; type: cell-based; conditions: 11 isolates
[14] = test system: Peptostreptococcus prevotii; type: cell-based; conditions: 9 isolates
Porphyromonas spp. = type: cell-based, Porphyromonas cangingivalis, cansulci, circumdentaria, levii; conditions: 11 isolates
[15] = test system: Peptostreptococcus micros; type: cell-based; conditions: 12 isolates
[16] = read-out: Minimal Inhibitory Concentration 90% (MIC90)
[17] = read-out: Minimal Inhibitory Concentration 50% (MIC50)
[18] = Porphyromonas, read-out: Minimal Inhibitory Concentration 50% (MIC50)
[19] = Porphyromonas, read-out: Minimal Inhibitory Concentration 90% (MIC90)

Compound: N[C@@H]1[C@H]2CN(c3nc4c(cc3F)c(=O)c(C(=O)O)cn4-c3ccc(F)cc3F)C[C@@H]12 [Trovafloxacin]
- Minimal Inhibitory Concentration Range (Clostridium ramosum): 0.25 to 8 µg/mL
- MIC50 (Clostridium ramosum; Thomasclavelia ramosa, read-out: Minimal Inhibitory Concentration 50% (MIC50)): 0.5 µg/mL (≈ 1.2 µM)
- MIC90 (Clostridium ramosum; Thomasclavelia ramosa, read-out: Minimal Inhibitory Concentration 90% (MIC90)): 2 µg/mL (≈ 4.8 µM)
- Minimal Inhibitory Concentration Range [1]: 0.25 to 4 µg/mL
- MIC90 ([1]; Prevotella, read-out: Minimal Inhibitory Concentration 90% (MIC90)): 2 µg/mL (≈ 4.8 µM)
- MIC50 ([1]; Prevotella, read-out: Minimal Inhibitory Concentration 50% (MIC50)): 1 µg/mL (≈ 2.4 µM)
- Minimal Inhibitory Concentration Range [2]: 0.06 to 8 µg/mL
- MIC90 ([2]; Prevotella melaninogenica, read-out: Minimal Inhibitory Concentration 90% (MIC90)): 4 µg/mL (≈ 9.61 µM)
- MIC50 ([2]; Prevotella melaninogenica, read-out: Minimal Inhibitory Concentration 50% (MIC50)): 1 µg/mL (≈ 2.4 µM)
- Minimal Inhibitory Concentration Range [3]: 2 to 4 µg/mL
- MIC90 ([3]; Schaalia odontolytica, read-out: Minimal Inhibitory Concentration 90% (MIC90)): 4 µg/mL (≈ 9.61 µM)
- MIC50 ([3]; Schaalia odontolytica, read-out: Minimal Inhibitory Concentration 50% (MIC50)): 4 µg/mL (≈ 9.61 µM)
- Minimal Inhibitory Concentration Range (Prevotella intermedia): 0.06 to 1 µg/mL
- MIC90 (Prevotella intermedia; Prevotella intermedia, read-out: Minimal Inhibitory Concentration 90% (MIC90)): 1 µg/mL (≈ 2.4 µM)
- MIC50 (Prevotella intermedia; Prevotella intermedia, read-out: Minimal Inhibitory Concentration 50% (MIC50)): 0.5 µg/mL (≈ 1.2 µM)
- MIC90 (Bilophila wadsworthia; [16]): > 8 µg/mL
- MIC50 (Bilophila wadsworthia; [17]): 0.5 µg/mL (≈ 1.2 µM)
- Minimal Inhibitory Concentration Range [4]: 0.06 to 0.25 µg/mL
- MIC50 ([4]; Finegoldia magna, read-out: Minimal Inhibitory Concentration 50% (MIC50)): 0.125 µg/mL (≈ 0.3 µM)
- MIC90 ([4]; Finegoldia magna, read-out: Minimal Inhibitory Concentration 90% (MIC90)): 0.25 µg/mL (≈ 0.6 µM)
- MIC90 (Clostridium inocuum; [16]): 8 µg/mL (≈ 19.2 µM)
- MIC50 (Clostridium inocuum; [17]): 0.5 µg/mL (≈ 1.2 µM)
- Minimal Inhibitory Concentration Range [5]: 0.5 to 2 µg/mL
- MIC50 ([5]; Peptoniphilus asaccharolyticus, read-out: Minimal Inhibitory Concentration 50% (MIC50)): 1 µg/mL (≈ 2.4 µM)
- MIC90 ([5]; Peptoniphilus asaccharolyticus, read-out: Minimal Inhibitory Concentration 90% (MIC90)): 1 µg/mL (≈ 2.4 µM)
- Minimal Inhibitory Concentration Range [6]: 0.125 to 0.25 µg/mL
- MIC90 ([6]; Prevotella heparinolytica, read-out: Minimal Inhibitory Concentration 90% (MIC90)): 0.25 µg/mL (≈ 0.6 µM)
- MIC50 ([6]; Prevotella heparinolytica, read-out: Minimal Inhibitory Concentration 50% (MIC50)): 0.125 µg/mL (≈ 0.3 µM)
- Minimal Inhibitory Concentration Range [7]: 0.03 to 0.25 µg/mL
- MIC50 [7, 18]: 0.25 µg/mL (≈ 0.6 µM)
- MIC90 [7, 19]: 0.25 µg/mL (≈ 0.6 µM)
- Minimal Inhibitory Concentration Range (Fusobacterium russii): 0.5 to 4 µg/mL
- MIC50 (Fusobacterium russii; Fusobacterium russii, read-out: Minimal Inhibitory Concentration 50% (MIC50)): 4 µg/mL (≈ 9.61 µM)
- MIC90 (Fusobacterium russii; Fusobacterium russii, read-out: Minimal Inhibitory Concentration 90% (MIC90)): 4 µg/mL (≈ 9.61 µM)
- Minimal Inhibitory Concentration Range [8]: 0.06 to 0.5 µg/mL
- MIC50 ([8]; Anaerobiospirillum thomasii, read-out: Minimal Inhibitory Concentration 50% (MIC50)): 0.125 µg/mL (≈ 0.3 µM)
- MIC90 ([8]; Anaerobiospirillum thomasii, read-out: Minimal Inhibitory Concentration 90% (MIC90)): 0.25 µg/mL (≈ 0.6 µM)
- MIC90 (Bacteroides ureolyticus; [16]): 4 µg/mL (≈ 9.61 µM)
- MIC50 (Bacteroides ureolyticus; [17]): 0.06 µg/mL (≈ 0.144 µM)
- Minimal Inhibitory Concentration Range (Actinomyces israelii): 0.5 to 2 µg/mL
- MIC50 (Actinomyces israelii; Actinomyces israelii, read-out: Minimal Inhibitory Concentration 50% (MIC50)): 1 µg/mL (≈ 2.4 µM)
- Minimal Inhibitory Concentration Range (Porphyromonas macaccae): 0.03 to 0.125 µg/mL
- MIC50 (Porphyromonas macaccae; [18]): 0.06 µg/mL (≈ 0.144 µM)
- MIC90 (Porphyromonas macaccae; [19]): 0.125 µg/mL (≈ 0.3 µM)
- Minimal Inhibitory Concentration Range (Prevotella bivia): 1 to 4 µg/mL
- MIC90 (Prevotella bivia; Prevotella bivia, read-out: Minimal Inhibitory Concentration 90% (MIC90)): 2 µg/mL (≈ 4.8 µM)
- MIC50 (Prevotella bivia; Prevotella bivia, read-out: Minimal Inhibitory Concentration 50% (MIC50)): 2 µg/mL (≈ 4.8 µM)
- MIC90 (Veillonella spp.; [16]): > 8 µg/mL
- MIC50 (Veillonella spp.; [17]): 0.25 µg/mL (≈ 0.6 µM)
- Minimal Inhibitory Concentration Range (Porphyromonas canoris): 0.06 to 0.5 µg/mL
- MIC50 (Porphyromonas canoris; Porphyromonas canoris, read-out: Minimal Inhibitory Concentration 50% (MIC50)): 0.25 µg/mL (≈ 0.6 µM)
- MIC90 (Porphyromonas canoris; Porphyromonas canoris, read-out: Minimal Inhibitory Concentration 90% (MIC90)): 0.5 µg/mL (≈ 1.2 µM)
- MIC90 (Bacteroides gracilis; [16]): 0.5 µg/mL (≈ 1.2 µM)
- MIC50 (Bacteroides gracilis; [17]): 0.03 µg/mL (≈ 0.0721 µM)
- Minimal Inhibitory Concentration Range [9]: 0.5 to 2 µg/mL
- MIC50 ([9]; Anaerobiospirillum succiniciproducens, read-out: Minimal Inhibitory Concentration 50% (MIC50)): 1 µg/mL (≈ 2.4 µM)
- MIC50 (Fusobacterium varium; [17]): 4 µg/mL (≈ 9.61 µM)
- MIC90 (Fusobacterium varium; [16]): > 8 µg/mL
- Minimal Inhibitory Concentration Range [10]: 0.06 to 4 µg/mL
- MIC50 ([10]; Prevotella denticola, read-out: Minimal Inhibitory Concentration 50% (MIC50)): 1 µg/mL (≈ 2.4 µM)
- Minimal Inhibitory Concentration Range [11]: 0.25 to 4 µg/mL
- MIC50 ([11]; Fusobacterium, GROUP1, read-out: Minimal Inhibitory Concentration 50% (MIC50)): 0.5 µg/mL (≈ 1.2 µM)
- MIC90 ([11]; Fusobacterium, GROUP1, read-out: Minimal Inhibitory Concentration 90% (MIC90)): 4 µg/mL (≈ 9.61 µM)
- MIC50 [12, 17]: 4 µg/mL (≈ 9.61 µM)
- MIC90 [12, 16]: 4 µg/mL (≈ 9.61 µM)
- Minimal Inhibitory Concentration Range (Porphyromonas gingivalis): 0.03 to 0.06 µg/mL
- MIC50 (Porphyromonas gingivalis; Porphyromonas gingivalis, read-out: Minimal Inhibitory Concentration 50% (MIC50)): 0.06 µg/mL (≈ 0.144 µM)
- MIC90 (Porphyromonas gingivalis; Porphyromonas gingivalis, read-out: Minimal Inhibitory Concentration 90% (MIC90)): 0.06 µg/mL (≈ 0.144 µM)
- Minimal Inhibitory Concentration Range (Bacteroides tectum): 0.03 to 0.125 µg/mL
- MIC90 (Bacteroides tectum; Bacteroides pyogenes, read-out: Minimal Inhibitory Concentration 90% (MIC90)): 0.125 µg/mL (≈ 0.3 µM)
- MIC50 (Bacteroides tectum; Bacteroides pyogenes, read-out: Minimal Inhibitory Concentration 50% (MIC50)): 0.06 µg/mL (≈ 0.144 µM)
- Minimal Inhibitory Concentration Range [13]: 1 to 8 µg/mL
- MIC90 ([13]; Clostridium, read-out: Minimal Inhibitory Concentration 90% (MIC90)): 4 µg/mL (≈ 9.61 µM)
- MIC50 ([13]; Clostridium, read-out: Minimal Inhibitory Concentration 50% (MIC50)): 4 µg/mL (≈ 9.61 µM)
- Minimal Inhibitory Concentration Range [14]: 0.25 to 1 µg/mL
- MIC50 ([14]; Anaerococcus prevotii, read-out: Minimal Inhibitory Concentration 50% (MIC50)): 0.25 µg/mL (≈ 0.6 µM)
- Minimal Inhibitory Concentration Range (Porphyromonas spp.): 0.06 to 1 µg/mL
- MIC50 (Porphyromonas spp.; [18]): 0.25 µg/mL (≈ 0.6 µM)
- MIC90 (Porphyromonas spp.; [19]): 1 µg/mL (≈ 2.4 µM)
- Minimal Inhibitory Concentration Range [15]: 0.03 to 0.125 µg/mL
- MIC50 ([15]; Parvimonas micra, read-out: Minimal Inhibitory Concentration 50% (MIC50)): 0.06 µg/mL (≈ 0.144 µM)
- MIC90 ([15]; Parvimonas micra, read-out: Minimal Inhibitory Concentration 90% (MIC90)): 0.06 µg/mL (≈ 0.144 µM)
